Results: PMC5432742, “Vasorelaxing and antihypertensive activities of synthesized peptides derived from computer-aided simulation of pepsin hydrolysis of yam dioscorin” (Botanical Studies, 2014)
Where two headings read alike, the source gives them in different places.

Legend:
[1] = tested on: endothelium-intact rat thoracic aortic rings; assay: Relaxation of phenylephrine-induced tension in endothelium-intact rat thoracic aortic rings ex vivo; design: species or system Sprague-Dawley rat
Method: (§1) Effects of four peptides and captopril on vascular tension were examined following the previous method (Wang et al. [2001]). Male Sprague–Dawley rats were killed by decapitation, and sections of the thoracic aorta between the aortic arch and the diaphragm were excised carefully and placed in a Petri dish with oxygenated Krebs’ buffer (120 mM NaCl, 4.5 mM KCl, 2.5 mM CaCl2, 1 mM MgSO4, 27 mM NaHCO3, 1 mM KH2PO4, 10 mM glucose, pH 7.4, with 95% O2, 5% CO2) and gently dissected free of fat and connective tissue. The endothelium was removed by gently rubbing the intimal layer of the vessel with a wire. The isolated aortic rings, 3 to 4 mm in length with or without the endothelium, were fixed isometrically in organ chambers under passive tension (1.8 g) for 60 min. Changes in vascular tension were recorded with a polygraph (Gould, model 2400, Valley View, OH, USA) via a force displacement transducer (Grass FT03, Quincy, MA, USA). After equilibration, the near maximal concentration was induced by PE (0.3 μM). When the rings achieved a stable tension, the acetylcholine (3 μM) was added to the bath to assess endothelial integrity. The relaxing effects of KTCGY, KTCGYKTCGY, TCGYTCGY, KRIHF, and captopril on PE (0.3 μM) pre-contracted endothelium-intact or endothelium-denuded aortic rings were examined. When PE treatments reached a steady plateau (considered as 100%), KTCGY, KTCGYKTCGY, TCGYTCGY, KRIHF, and captopril were then tested at cumulative concentrations (0.1 to 100 μM) for their ability to induce aortic ring relaxations.
(§2) Figure 2 Vasorelaxing activity of endothelium-intact and endothelium-denuded SD rat aortic rings in phenylephrine-induced tensions. (A) KTCGY, (B) KTCGYKTCGY, (C) TCGYTCGY, (D) KRIHF, and (E) captopril on Data were expressed as mean ± S.E.

[2] = tested on: endothelium-denuded rat thoracic aortic rings; assay: Relaxation of phenylephrine-induced tension in endothelium-denuded rat thoracic aortic rings ex vivo; design: species or system Sprague-Dawley rat; settings: PE 0.3 μM; for aortic ring relaxation in endothelium-denuded rings (in words): cumulative 0.1 to 100 μM; for PE-induced endothelium-denuded aortic ring tension (PE plateau = 100%): 100 μM test substance, endothelium-denuded rings
Method: as §1, §2

[3] = tested on: spontaneously hypertensive rats (SHRs); assay: Antihypertensive effect in SHRs after a single oral administration (tail-cuff blood pressure); type: in vivo, rat; settings: SHR, N = 6
Method: Experimental procedures were reviewed and approved by the Institutional Animal Care and Use Committee of Taipei Medical University (LAC-95-0076, LAC-97-0117, and LAC-100-0038). Male SHRs (18–28 weeks old; from National Laboratory Animal Center, Taipei, Taiwan) were housed individually in steel cages kept at 24°C under a 12-h light–dark cycle, with free access to water and a standard mouse/rat chow (Prolab® RMH2500, 5P14 Diet, PMI Nutrition International Brentwood, MO, USA). SHRs were randomly divided into 4 groups (N = 6 of each group), KTCGY or KRIHF at concentration of 10 mg/kg and 20 mg/kg was orally administered to the SHRs, and the SBP were measured after 0, 2, 4, 6, 8, and 24 h by using an indirect tail-cuff blood pressure meter (BP98-A, Softron, Tokyo, Japan). Distilled water (0.5 ml) was administered to the SHRs in the blank group. The captopril (10 mg/kg) was used as the positive control.
Figure 3 Antihypertensive activity of (A) KTCGY and (B) KRIHF on systolic blood pressure of spontaneously hypertensive rats (SHRs). KTCGY or KRIHF at concentration of 10 mg/kg and 20 mg/kg was orally administered to the SHRs (6 rats/group), and the SBP were measured after 0, 2, 4, 6, 8, and 24 h by using an indirect tail-cuff blood pressure meter (BP98-A, Softron, Tokyo, Japan). Distilled water (0.5 ml) was administered to the SHRs in the blank group. The captopril (10 mg/kg) was used as the positive control.

[4] = tested on: spontaneously hypertensive rats (SHRs); settings: ref Fujita et al. 2000; cited from earlier work
Description: (§3) The untreated high blood pressure is considered to be the central factor in stroke which accounts approximately 33% deaths (Mark and Davis [2000]). There are several classes of pharmacological agents which have been used in the treatment of hypertension, and one class of antihypertensive drugs known as angiotensin I converting enzyme (ACE) inhibitors is associated with a low rate of adverse side effects and is the preferred class of antihypertensive agents when treating patients with concurrent secondary diseases or cardiovascular diseases (Zaman et al. [2002]). ACE (peptidyldipeptide hydr ...

ACE = settings: read-out: ACE inhibition IC50, cited from earlier work
Description: as §3, with “[2002]).” for “[2002]). ACE (peptidyldipeptide hydr ...”

[5] = trolox equivalents (TE); ref Hernández-Ledesma et al. 2005; cited from earlier work
[6] = tested on: spontaneously hypertensive rats (SHRs); assay: Antihypertensive effect in SHRs after a single oral administration (tail-cuff blood pressure); type: in vivo, rat; settings: 10 and 20 mg/kg single oral dose, SHR; data not shown
ACE (rabbit lung) = assay: ACE inhibitory assay screening (FAPGG substrate, absorbance at 345 nm); type: biochemical; settings: peptide 40 μM; 0.5 mM FAPGG in 50 mM Tris-HCl pH 7.5, 0.3 M NaCl; 90 sec, room temperature
Method: The ACE inhibitory activity was measured following the previous reports with some modifications (Hsu et al. [2002]). Each synthesized peptide was dissolved in DMSO to 4 mM as stocks. The 1 ml, 0.5 mM FAPGG (dissolved in 50 mM Tris–HCl buffer, pH 7.5, containing 0.3 M NaCl) was mixed with 12.2 μl peptide solution, and then twenty μl ([…]) of commercial ACE (stock solution, 1U/ ml) was added. The 0.1% DMSO solution was used instead of sample solution for blank experiments (ΔAblank/min). The decreased absorbance at 345 nm (ΔAsample/min) was recorded during 90 sec at room temperature. The ACE inhibition (%) was calculated as followed: [1 - (ΔAsample/min ÷ ΔAblank/min)] × 100.
Figure 1 ACE inhibition by 23 synthesized peptides (40 μM) derived from a computer-aided simulation of pepsin hydrolysis of yam dioscorin. The 0.1% DMSO solution was used instead of sample solution for blank experiments (ΔAblank/min). The decreased absorbance at 345 nm (ΔAsample/min) was recorded during 90 sec at room temperature. The ACE inhibition (%) was calculated as followed: [1 - (ΔAsample/min ÷ ΔAblank/min)] × 100. The synthesized peptides included (1) KTCGNGME, (2) PPCSE, (3) CDDRVIRTPLT, (4) KTCGY, (5) PPCTE, (6) RDNGVIF, (7) KRIHF, (8) RRDY, (9) RSVF, (10) PTNF, (11) GISW, (12) MGSF, (13) VSIL, (14) HSPA, (15) DPF, (16) RY, (17) RF, (18) NW, (19) RL, (20) GVI, (21) GSL, (22) SY, and (23) GPA. […]

[7] = 100 μM test substance, PE 0.3 μM, endothelium-intact rings, mean ± S.E. (Figure 2), SEM

C[C@H](CS)C(=O)N1CCC[C@H]1C(=O)O [captopril, reference compound]
PE-induced aortic ring tension (PE plateau = 100%) ([1]; 100 µM, SEM): 26.81 ± 5.54% | aortic ring relaxation in endothelium-denuded rings (in words) [2]: not endothelium-denuded | average reduced SBP ([3]; 10 mg/kg single oral dose, 2-h): 26.85 mmHg | average reduced SBP ([3]; 10 mg/kg single oral dose, 4-h): 24.97 mmHg | average reduced SBP ([3]; 10 mg/kg single oral dose, 6-h): 29.82 mmHg | average reduced SBP ([3]; 10 mg/kg single oral dose, 8-h): 24 mmHg | average reduced SBP ([3]; 10 mg/kg single oral dose, 24-h): 13.80 mmHg

ERKIKVYL
reduction of blood pressure in SHRs (in words) [4]: none of them were effective | IC50 (ACE; ref Fujita et al. 2000): 1.2 µM

FFGRCVSP
reduction of blood pressure in SHRs (in words) [4]: none of them were effective | IC50 (ACE; ref Fujita et al. 2000): 0.4 µM

N[C@@H](Cc1ccc(O)cc1)C(=O)O [Tyr]
oxygen radical absorbance capacity (ORAC) activity [5]: 1.574 μmole TE/μmole

KRIHF [penta-peptide, residues 118–122 of dioscorin A and dioscorin B]
lowering of diastolic blood pressure (in words) [6]: not diastolic blood pressure | PE-induced aortic ring tension (PE plateau = 100%) ([1]; 10 μM test substance, PE 0.3 μM, endothelium-intact rings): 80.26 ± 7.82% | PE-induced aortic ring tension (PE plateau = 100%) [1, 7]: 19.19 ± 7.63% | aortic ring relaxation in endothelium-denuded rings (in words) [2]: not endothelium-denuded | average reduced SBP ([3]; 10 mg/kg single oral dose, 2-h): 17.30 mmHg | average reduced SBP ([3]; 10 mg/kg single oral dose, 4-h): 21.95 mmHg | average reduced SBP ([3]; 10 mg/kg single oral dose, 6-h): 21.47 mmHg | average reduced SBP ([3]; 10 mg/kg single oral dose, 8-h): 16.65 mmHg | average reduced SBP ([3]; 20 mg/kg single oral dose, 2-h): 18.57 mmHg | average reduced SBP ([3]; 20 mg/kg single oral dose, 4-h): 19.64 mmHg | average reduced SBP ([3]; 20 mg/kg single oral dose, 6-h): 20.87 mmHg | average reduced SBP ([3]; 20 mg/kg single oral dose, 8-h): 8.99 mmHg | ACE inhibition (%) (ACE (rabbit lung)): higher than 50%

N[C@@H](Cc1ccccc1)C(=O)O [Phe]
oxygen radical absorbance capacity (ORAC) activity [5]: 0.0025 μmole TE/μmole

N[C@@H](Cc1c[nH]cn1)C(=O)O [His]
oxygen radical absorbance capacity (ORAC) activity [5]: 0.073 μmole TE/μmole

CSCC[C@H](N)C(=O)O [Met]
oxygen radical absorbance capacity (ORAC) activity [5]: 1.126 μmole TE/μmole

N[C@@H](CS)C(=O)O [Cys]
oxygen radical absorbance capacity (ORAC) activity [5]: 0.1492 μmole TE/μmole

KTCGYKTCGY [two-repeated KTCGY]
PE-induced aortic ring tension (PE plateau = 100%) [1, 7]: 46.05 ± 8.02% | PE-induced endothelium-denuded aortic ring tension (PE plateau = 100%) [2]: 66.59 ± 14.84%

RADHPF [ovokinin (2–7), hexa-peptide isolated from chymotryptic ovalbumin hydrolysates]
IC50 (ACE; ref Matoba et al. 1999): > 1000 µM

N[C@@H](Cc1c[nH]c2ccccc12)C(=O)O [Trp]
oxygen radical absorbance capacity (ORAC) activity [5]: 4.649 μmole TE/μmole

TCGYTCGY [two-repeated TCGY]
PE-induced aortic ring tension (PE plateau = 100%) [1, 7]: 43.52 ± 6.42% | PE-induced endothelium-denuded aortic ring tension (PE plateau = 100%) [2]: 74.44 ± 15.13%

KTCGY [penta-peptide, residues 52–56 of dioscorin B]
lowering of diastolic blood pressure (in words) [6]: not diastolic blood pressure | PE-induced aortic ring tension (PE plateau = 100%) [1, 7]: 26.97 ± 7.48% | aortic ring relaxation in endothelium-denuded rings (in words) [2]: not endothelium-denuded | average reduced SBP ([3]; 10 mg/kg single oral dose, 6-h): 24.17 mmHg | average reduced SBP ([3]; 10 mg/kg single oral dose, 8-h): 11.93 mmHg | average reduced SBP ([3]; 20 mg/kg single oral dose, 2-h): 24.20 mmHg | average reduced SBP ([3]; 20 mg/kg single oral dose, 4-h): 26.24 mmHg | average reduced SBP ([3]; 20 mg/kg single oral dose, 6-h): 31.03 mmHg | average reduced SBP ([3]; 20 mg/kg single oral dose, 8-h): 21.40 mmHg | ACE inhibition (%) (ACE (rabbit lung)): higher than 50%
